Tested on: P. aeruginosa
Test: Phase 2 study: P. aeruginosa density in sputum
Type: in vivo, Pseudomonas aeruginosa
Conditions: MITT; for Reduction in P. aeruginosa density in sputum: median Day 1 to Day 28
Description: The following dosage regimens (as nebulizer loaded doses) were evaluated: 120 mg QD (daily); 240 mg QD (daily); and 240 mg BID (twice daily).
Patients were assessed on Day 1, 7, 14, and 28, and then up to 28 days after completion of study drug, namely, Days 42 and 56. The end of the study was defined as the last visit of the last patient.
Efficacy was evaluated by microbiologic assessment of sputum samples, time to need for anti-pseudomonal antimicrobials, the Cystic Fibrosis Questionaire-Revised (CFQ-R), and pulmonary function tests. […] Pair-wise comparisons between all the treatment arms were conducted as secondary analyses.

[1] = combined 240 mg QD and BID, Baseline to Day 7
[2] = combined 240 mg QD and BID, Baseline to Day 14
[3] = combined 240 mg QD and BID, Baseline to Day 28
[4] = combined 240 mg QD and BID, Day 1
[5] = combined 240 mg QD and BID, Day 7
[6] = combined 240 mg QD and BID, Day 14
[7] = combined 240 mg QD and BID, Day 28

C[C@H]1COc2c(N3CCN(C)CC3)c(F)cc3c(=O)c(C(=O)O)cn1c23 [Levofloxacin, levofloxacin]
Change in P. aeruginosa density, mean (120 mg QD, Baseline to Day 7): −0.70 log10 CTU/g sputum
Change in P. aeruginosa density, median (120 mg QD, Baseline to Day 7): −0.53 log10 CTU/g sputum
Change in P. aeruginosa density, mean (120 mg QD, Baseline to Day 14): −0.07 log10 CTU/g sputum
Change in P. aeruginosa density, median (120 mg QD, Baseline to Day 14): 0.00 log10 CTU/g sputum
Change in P. aeruginosa density, mean (120 mg QD, Baseline to Day 28): −0.27 log10 CTU/g sputum
Change in P. aeruginosa density, median (120 mg QD, Baseline to Day 28): −0.20 log10 CTU/g sputum
P. aeruginosa density, mean (120 mg QD, Day 1): 7.43 log10 CTU/g sputum
P. aeruginosa density, median (120 mg QD, Day 1): 8.16 log10 CTU/g sputum
P. aeruginosa density, mean (120 mg QD, Day 7): 6.68 log10 CTU/g sputum
P. aeruginosa density, median (120 mg QD, Day 7): 6.98 log10 CTU/g sputum
P. aeruginosa density, mean (120 mg QD, Day 14): 7.33 log10 CTU/g sputum
P. aeruginosa density, median (120 mg QD, Day 14): 8.00 log10 CTU/g sputum
P. aeruginosa density, mean (120 mg QD, Day 28): 7.26 log10 CTU/g sputum
P. aeruginosa density, median (120 mg QD, Day 28): 7.78 log10 CTU/g sputum
Reduction in P. aeruginosa density in sputum (120 mg QD): approximately 58%
Change in P. aeruginosa density, mean (240 mg BID, Baseline to Day 7): −0.97 log10 CTU/g sputum
Change in P. aeruginosa density, median (240 mg BID, Baseline to Day 7): −0.76 log10 CTU/g sputum
Change in P. aeruginosa density, mean (240 mg BID, Baseline to Day 14): −0.81 log10 CTU/g sputum
Change in P. aeruginosa density, median (240 mg BID, Baseline to Day 14): −0.79 log10 CTU/g sputum
Change in P. aeruginosa density, mean (240 mg BID, Baseline to Day 28): −0.66 log10 CTU/g sputum
Change in P. aeruginosa density, median (240 mg BID, Baseline to Day 28): −0.56 log10 CTU/g sputum
P. aeruginosa density, mean (240 mg BID, Day 1): 7.17 log10 CTU/g sputum
P. aeruginosa density, median (240 mg BID, Day 1): 7.90 log10 CTU/g sputum
P. aeruginosa density, mean (240 mg BID, Day 7): 6.16 log10 CTU/g sputum
P. aeruginosa density, median (240 mg BID, Day 7): 6.53 log10 CTU/g sputum
P. aeruginosa density, mean (240 mg BID, Day 14): 6.32 log10 CTU/g sputum
P. aeruginosa density, median (240 mg BID, Day 14): 6.70 log10 CTU/g sputum
P. aeruginosa density, mean (240 mg BID, Day 28): 6.58 log10 CTU/g sputum
P. aeruginosa density, median (240 mg BID, Day 28): 6.48 log10 CTU/g sputum
Reduction in P. aeruginosa density in sputum (240 mg BID): approximately 96%
Change in P. aeruginosa density, mean (240 mg QD, Baseline to Day 7): −0.31 log10 CTU/g sputum
Change in P. aeruginosa density, median (240 mg QD, Baseline to Day 7): −0.18 log10 CTU/g sputum
Change in P. aeruginosa density, mean (240 mg QD, Baseline to Day 14): −0.44 log10 CTU/g sputum
Change in P. aeruginosa density, median (240 mg QD, Baseline to Day 14): −0.10 log10 CTU/g sputum
Change in P. aeruginosa density, mean (240 mg QD, Baseline to Day 28): −0.25 log10 CTU/g sputum
Change in P. aeruginosa density, median (240 mg QD, Baseline to Day 28): −0.39 log10 CTU/g sputum
P. aeruginosa density, mean (240 mg QD, Day 1): 7.08 log10 CTU/g sputum
P. aeruginosa density, median (240 mg QD, Day 1): 7.97 log10 CTU/g sputum
P. aeruginosa density, mean (240 mg QD, Day 7): 6.79 log10 CTU/g sputum
P. aeruginosa density, median (240 mg QD, Day 7): 6.95 log10 CTU/g sputum
P. aeruginosa density, mean (240 mg QD, Day 14): 6.63 log10 CTU/g sputum
P. aeruginosa density, median (240 mg QD, Day 14): 6.46 log10 CTU/g sputum
P. aeruginosa density, mean (240 mg QD, Day 28): 6.82 log10 CTU/g sputum
P. aeruginosa density, median (240 mg QD, Day 28): 7.38 log10 CTU/g sputum
Reduction in P. aeruginosa density in sputum (240 mg QD): approximately 74%
Largest difference in P. aeruginosa density, placebo vs levofloxacin (Day 7): 1.44 log10 CFU/g sputum
Largest difference in P. aeruginosa density, placebo vs levofloxacin (Day 14): 1.39 log10 CFU/g sputum
Largest difference in P. aeruginosa density, placebo vs levofloxacin (Day 28): 1.78 log10 CFU/g sputum
Change in P. aeruginosa density, mean [1]: −0.65 log10 CTU/g sputum
Change in P. aeruginosa density, median [1]: −0.35 log10 CTU/g sputum
Change in P. aeruginosa density, mean [2]: −0.63 log10 CTU/g sputum
Change in P. aeruginosa density, median [2]: −0.40 log10 CTU/g sputum
Change in P. aeruginosa density, mean [3]: −0.46 log10 CTU/g sputum
Change in P. aeruginosa density, median [3]: −0.5 log10 CTU/g sputum
P. aeruginosa density, mean [4]: 7.12 log10 CTU/g sputum
P. aeruginosa density, median [4]: 7.91 log10 CTU/g sputum
P. aeruginosa density, mean [5]: 6.47 log10 CTU/g sputum
P. aeruginosa density, median [5]: 6.69 log10 CTU/g sputum
P. aeruginosa density, mean [6]: 6.48 log10 CTU/g sputum
P. aeruginosa density, median [6]: 6.61 log10 CTU/g sputum
P. aeruginosa density, mean [7]: 6.70 log10 CTU/g sputum
P. aeruginosa density, median [7]: 6.90 log10 CTU/g sputum

— patent publication US10792289B2 (Horizon Orphan LLC, priority 2009, dated 2020)
